Experimental data taken from the NIST ThermoML archive (doi:10.1016/j.jct.2015.03.012).
± gives the expanded uncertainty stated by the source. Blank lines part the entries; values can stand above or below the molecule they belong to.

How the values were obtained:
[1] = mn = molality of the nth substance listed, in mol/kg; settings: 298.15 K, 101.3 kPa, Liquid, Vibrating tube method
[2] = wn = mass fraction of the nth substance listed; settings: 298.15 K, 101.3 kPa, Liquid, Vibrating tube method

SMILES: OCC1CO1 (stereo not drawn) [2,3-epoxy-1-propanol] + O
mass density ([1]; m1 = 0.4019): 1001.85 ± 0.44 kg/m3

SMILES: OC[C@@H]1CO1 [R-(+)-glycidol] + O
mass density ([1]; m1 = 0.402): 1002.68 ± 0.27 kg/m3

SMILES: OC[C@H]1CO1 [S-(-)-glycidol] + O
mass density ([1]; m1 = 0.4554): 1002.79 ± 0.27 kg/m3

mass density ([2]; w1 = 0.05): 996.463 ± 0.11 kg/m3
mass density ([2]; w1 = 0.1001): 996.232 ± 0.11 kg/m3
mass density ([2]; w1 = 0.15): 996.24 ± 0.11 kg/m3
mass density ([2]; w1 = 0.2001): 996.402 ± 0.11 kg/m3
mass density ([2]; w1 = 0.2502): 996.649 ± 0.11 kg/m3
SMILES: CN(C)C=O [dimethylformamide] + O
